{"source": "paper PMC4894406", "about": "“Results of an abbreviated phase-II study with the Akt Inhibitor MK-2206 in Patients with Advanced Biliary Cancer” (Scientific Reports, 2015)", "key": {"[1]": {"test_system": "CYP3A", "design": "method as in PMID 24387695", "details": "at 0.1 to 10 μM; cited from earlier work"}, "[2]": {"test_system": "human Akt (Akt-1)", "details": "cited from earlier work"}, "[3]": {"test_system": "CYP3A4", "design": "method as in PMID 24387695", "details": "read-out: IC50 CYP3A4 inhibition; cited from earlier work"}, "[4]": {"test_system": "P-glycoprotein", "details": "cited from earlier work"}, "[5]": {"design": "method as in Fouladi et al. [23]", "details": "children with refractory malignancies, 9 subjects, 120 mg/m^2 weekly oral, first dose; ref Fouladi et al. [23]; cited from earlier work"}, "[6]": {"test_system": "CYP3A4", "details": "cited from earlier work"}, "[7]": {"assay": "Phase II study: toxicities (NCI-CTCAE v4.0)", "type": "in vivo, human", "details": "200 mg weekly, n = 8", "procedure": "The starting dose and schedule for MK-2206 was 200 mg given weekly in 28-day cycles without interruption. Treatment was administered on an outpatient basis. Two levels of dose reductions were planned (135 mg weekly and 90 mg weekly) with patients taken off the study for additional dose reductions.\nRadiologic assessment was done by computed tomography every 8 weeks and responses were measured according to RECIST 1.1[17]. Toxicities were defined by the NCI-Common Terminology Criteria of Adverse Events version 4.0."}, "[8]": {"test_system": "CYP2D6", "design": "method as in PMID 24387695", "details": "read-out: IC50 CYP2D6 inhibition; cited from earlier work"}, "[9]": {"test_system": "CYP2C9", "design": "method as in PMID 24387695", "details": "read-out: IC50 CYP2C9 inhibition; cited from earlier work"}, "[10]": {"test_system": "advanced, refractory biliary cancer", "assay": "Phase II study: efficacy (RECIST 1.1, PFS, OS)", "type": "in vivo, human", "details": "for Overall Survival / Progression-Free Survival: 200 mg weekly (text b31 gives months)", "source_text": "This was a National Cancer Institute (NCI)/Cancer Therapy Evaluation Program (CTEP)-sponsored phase II, open label, multicenter trial led by The Ohio State University with the participation of Georgetown University and Case Western University (ClinicalTrials.gov NCT01425879, date of registration 08/27/2011). MK-2206 was provided by NCI/CTEP. The primary objective of this study was to determine the overall response rate (complete response and partial response) as defined by RECIST[17]. Tumor tissue samples were required from all patients prior to enrollment. Secondary objectives included overall survival (OS), progression-free survival (PFS), and the presence of any mutations in the pI3k/AKT pathway and the evaluation of toxicities related to MK-2206. The starting dose and schedule for MK-2206 was 200 mg given weekly in 28-day cycles without interruption. Treatment was administered on an outpatient basis. Two levels of dose reductions were planned (135 mg weekly and 90 mg weekly) with patients taken off the study for additional dose reductions. Radiologic assessment was done by computed tomography every 8 weeks and responses were measured according to RECIST 1.1[17]. Toxicities were defined by the NCI-Common Terminology Criteria of Adverse Events version 4.0."}}, "note": "pIC50: −log10 of the molar value. Where “and” joins values, the source holds several entries; their conditions need not be identical. Identical values can stand only once. Entries after “also recorded” stand apart in the source; their conditions may differ.", "data": [{"smiles": "NC1(c2ccc(-c3nc4ccn5c(=O)[nH]nc5c4cc3-c3ccccc3)cc2)CCC1", "note": "[MK-2206]", "values": [{"measurement": "effect on CYP3A mRNA and activity", "setting": "[1]", "result": "insignificant effect"}, {"measurement": "pIC50", "setting": "[2]", "result": 8.10}, {"measurement": "pIC50", "setting": "[3]", "result": "[…]"}, {"measurement": "P-glycoprotein substrate", "setting": "[4]", "result": "substrate of P-glycoprotein"}, {"measurement": "CL/F/m^2 (BSA-adjusted CL/F)", "setting": "[5]", "result": "18.0 +/− 18.8 L/hr/m^2 and 18.0±18.8 L/hr/m^2"}, {"measurement": "Cmax", "setting": "[5]", "result": 171, "unit": "ng/mL"}, {"measurement": "Half life", "setting": "[5]", "result": "44.2 ± 23.3", "unit": "h"}, {"measurement": "Tmax", "setting": "[5]", "result": "5.1 ± 1.6", "unit": "h"}, {"measurement": "Vz/F/m^2", "setting": "[5]", "result": "1100±1020", "unit": "L/m^2"}, {"measurement": "metabolism in human microsomes", "setting": "[6]", "result": "converted to oxidative metabolites in human microsomes via CYP3A4"}, {"measurement": "Anemia, All toxicities (%)", "setting": "[7]", "result": 12.5, "unit": "%"}, {"measurement": "Anemia, Grade 1 (%)", "setting": "[7]", "result": 12.5, "unit": "%"}, {"measurement": "Constipation, All toxicities (%)", "setting": "[7]", "result": 12.5, "unit": "%"}, {"measurement": "Constipation, Grade 1 (%)", "setting": "[7]", "result": 12.5, "unit": "%"}, {"measurement": "Diarrhea, All toxicities (%)", "setting": "[7]", "result": 50, "unit": "%"}, {"measurement": "Diarrhea, Grade 1 (%)", "setting": "[7]", "result": 25, "unit": "%"}, {"measurement": "Diarrhea, Grade 2 (%)", "setting": "[7]", "result": 12.5, "unit": "%"}, {"measurement": "Diarrhea, Grade 3 (%)", "setting": "[7]", "result": 12.5, "unit": "%"}, {"measurement": "Dry Mouth, All toxicities (%)", "setting": "[7]", "result": 25, "unit": "%"}, {"measurement": "Dry Mouth, Grade 1 (%)", "setting": "[7]", "result": 25, "unit": "%"}, {"measurement": "Dry Skin, All toxicities (%)", "setting": "[7]", "result": 38, "unit": "%"}, {"measurement": "Dry Skin, Grade 1 (%)", "setting": "[7]", "result": 25, "unit": "%"}, {"measurement": "Dry Skin, Grade 2 (%)", "setting": "[7]", "result": 12.5, "unit": "%"}, {"measurement": "Fatigue, All toxicities (%)", "setting": "[7]", "result": 50, "unit": "%"}, {"measurement": "Fatigue, Grade 1 (%)", "setting": "[7]", "result": 25, "unit": "%"}, {"measurement": "Fatigue, Grade 2 (%)", "setting": "[7]", "result": 25, "unit": "%"}, {"measurement": "Fever, Grade 1 (%)", "setting": "[7]", "result": 25, "unit": "%"}, {"measurement": "Hand Foot Syndrome, All toxicities (%)", "setting": "[7]", "result": 38, "unit": "%"}, {"measurement": "Hand Foot Syndrome, Grade 1 (%)", "setting": "[7]", "result": 25, "unit": "%"}, {"measurement": "Hand Foot Syndrome, Grade 2 (%)", "setting": "[7]", "result": 12.5, "unit": "%"}, {"measurement": "Hyponatremia, All toxicities (%)", "setting": "[7]", "result": 12.5, "unit": "%"}, {"measurement": "Hypophosphatemia, All toxicities (%)", "setting": "[7]", "result": 25, "unit": "%"}, {"measurement": "Hypophosphatemia, Grade 2 (%)", "setting": "[7]", "result": 25, "unit": "%"}, {"measurement": "Leukopenia, All toxicities (%)", "setting": "[7]", "result": 12.5, "unit": "%"}, {"measurement": "Leukopenia, Grade 1 (%)", "setting": "[7]", "result": 12.5, "unit": "%"}, {"measurement": "Lymphopenia, All toxicities (%)", "setting": "[7]", "result": 75, "unit": "%"}, {"measurement": "Lymphopenia, Grade 1 (%)", "setting": "[7]", "result": 25, "unit": "%"}, {"measurement": "Lymphopenia, Grade 2 (%)", "setting": "[7]", "result": 12.5, "unit": "%"}, {"measurement": "Lymphopenia, Grade 3 (%)", "setting": "[7]", "result": 37.5, "unit": "%"}, {"measurement": "Macular Rash, All toxicities (%)", "setting": "[7]", "result": 63, "unit": "%"}, {"measurement": "Macular Rash, Grade 1 (%)", "setting": "[7]", "result": 12.5, "unit": "%"}, {"measurement": "Macular Rash, Grade 2 (%)", "setting": "[7]", "result": 12.5, "unit": "%"}, {"measurement": "Macular Rash, Grade 3 (%)", "setting": "[7]", "result": 38, "unit": "%"}, {"measurement": "Mucositis, All toxicities (%)", "setting": "[7]", "result": 38, "unit": "%"}, {"measurement": "Mucositis, Grade 1 (%)", "setting": "[7]", "result": 38, "unit": "%"}, {"measurement": "Nausea, All toxicities (%)", "setting": "[7]", "result": 38, "unit": "%"}, {"measurement": "Nausea, Grade 1 (%)", "setting": "[7]", "result": 38, "unit": "%"}, {"measurement": "Thrombocytopenia, All toxicities (%)", "setting": "[7]", "result": 25, "unit": "%"}, {"measurement": "Thrombocytopenia, Grade 1 (%)", "setting": "[7]", "result": 12.5, "unit": "%"}, {"measurement": "Thrombocytopenia, Grade 3 (%)", "setting": "[7]", "result": 12.5, "unit": "%"}, {"measurement": "Vomiting, All toxicities (%)", "setting": "[7]", "result": 50, "unit": "%"}, {"measurement": "Vomiting, Grade 1 (%)", "setting": "[7]", "result": 50, "unit": "%"}, {"measurement": "overall toxicity / tolerability", "setting": "[7]", "result": "mild and tolerable; also recorded: mostly grade 1 or 2 and were reversible"}, {"measurement": "Hyponatremia, Grade 4 (%)", "setting": "[7]; felt to be unrelated to MK-2206", "result": 12.5, "unit": "%"}, {"measurement": "pIC50", "setting": "[8]", "result": "< 4.46"}, {"measurement": "pIC50", "setting": "[9]", "result": "< 4.46"}, {"measurement": "Median PFS", "setting": "[10]; 8 patients, 200 mg weekly", "result": 1.7, "unit": "months"}, {"measurement": "best response for all patients", "setting": "[10]; 8 patients, 200 mg weekly", "result": "stable disease"}, {"measurement": "median OS", "setting": "[10]; 8 patients, 200 mg weekly", "result": 3.5, "unit": "months"}, {"measurement": "objective response", "setting": "[10]; 8 patients, 200 mg weekly", "result": "No patients had an objective response"}, {"measurement": "duration of stable disease", "setting": "[10]; observed in two patients", "result": "[…]"}, {"measurement": "Best response", "setting": "[10]; subject 1001, Intrahepatic, 200 mg weekly", "result": "Progressive disease"}, {"measurement": "Overall Survival", "setting": "[10]; subject 1001, Intrahepatic", "result": 2.2}, {"measurement": "Progression-Free Survival", "setting": "[10]; subject 1001, Intrahepatic", "result": 1.8}, {"measurement": "Best response", "setting": "[10]; subject 1002, Intrahepatic, 200 mg weekly", "result": "Progressive disease"}, {"measurement": "Overall Survival", "setting": "[10]; subject 1002, Intrahepatic", "result": 3.1}, {"measurement": "Progression-Free Survival", "setting": "[10]; subject 1002, Intrahepatic", "result": 0.5}, {"measurement": "Best response", "setting": "[10]; subject 1003, Intrahepatic, 200 mg weekly", "result": "Progressive disease"}, {"measurement": "Overall Survival", "setting": "[10]; subject 1003, Intrahepatic", "result": 3.8}, {"measurement": "Progression-Free Survival", "setting": "[10]; subject 1003, Intrahepatic", "result": 1.2}, {"measurement": "Best response", "setting": "[10]; subject 1004, Intrahepatic, 200 mg weekly", "result": "Progressive disease"}, {"measurement": "Overall Survival", "setting": "[10]; subject 1004, Intrahepatic", "result": 3.1}, {"measurement": "Progression-Free Survival", "setting": "[10]; subject 1004, Intrahepatic", "result": 1.6}, {"measurement": "Best response", "setting": "[10]; subject 1005, Intrahepatic, 200 mg weekly", "result": "Stable disease"}, {"measurement": "Overall Survival", "setting": "[10]; subject 1005, Intrahepatic", "result": 20.2}, {"measurement": "Progression-Free Survival", "setting": "[10]; subject 1005, Intrahepatic", "result": 3.4}, {"measurement": "Best response", "setting": "[10]; subject 1007, Extrahepatic, 200 mg weekly", "result": "Progressive disease"}, {"measurement": "Overall Survival", "setting": "[10]; subject 1007, Extrahepatic", "result": 6.7}, {"measurement": "Progression-Free Survival", "setting": "[10]; subject 1007, Extrahepatic", "result": 6.6}, {"measurement": "Best response", "setting": "[10]; subject 2006, Intrahepatic, 200 mg weekly", "result": "Progressive disease"}, {"measurement": "Overall Survival", "setting": "[10]; subject 2006, Intrahepatic", "result": 2.8}, {"measurement": "Progression-Free Survival", "setting": "[10]; subject 2006, Intrahepatic", "result": 1.2}, {"measurement": "Best response", "setting": "[10]; subject 2008, Extrahepatic, 200 mg weekly", "result": "Stable disease"}, {"measurement": "Overall Survival", "setting": "[10]; subject 2008, Extrahepatic", "result": 6.1}, {"measurement": "Progression-Free Survival", "setting": "[10]; subject 2008, Extrahepatic", "result": 5.6}]}]}
